Experimental findings from patent publication US20240270762A1, “PENICILLIN-BINDING PROTEIN INHIBITORS” (priority 2021, published 2024) are described below.

Assay [1] deals with T1, PBP3 from Acinetobacter baumannii (ATCC 19606) (Acinetobacter baumannii, UniProt A0ABX6CK25).
T1 sequence (A0ABX6CK25 64-610): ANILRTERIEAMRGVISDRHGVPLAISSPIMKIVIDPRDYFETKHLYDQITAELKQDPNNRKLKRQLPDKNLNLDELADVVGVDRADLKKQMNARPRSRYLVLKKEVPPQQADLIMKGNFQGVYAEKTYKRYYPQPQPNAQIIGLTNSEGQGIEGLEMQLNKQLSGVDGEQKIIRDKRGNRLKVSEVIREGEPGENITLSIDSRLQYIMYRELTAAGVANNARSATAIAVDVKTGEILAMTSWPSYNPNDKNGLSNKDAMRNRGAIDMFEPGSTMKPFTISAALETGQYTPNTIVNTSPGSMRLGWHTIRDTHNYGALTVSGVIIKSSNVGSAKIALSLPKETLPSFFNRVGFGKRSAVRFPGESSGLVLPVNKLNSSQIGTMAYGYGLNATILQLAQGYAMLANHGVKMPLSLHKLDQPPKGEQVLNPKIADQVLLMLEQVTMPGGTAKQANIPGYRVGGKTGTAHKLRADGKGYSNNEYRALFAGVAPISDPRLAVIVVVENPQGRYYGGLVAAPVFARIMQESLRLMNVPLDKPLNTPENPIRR
Description: Bocillin-FL fluorescence polarization competition binding, A. baumannii PBP3. The note with it: fluorescence polarization competition binding assay using Bocillin-FL; read-out: A. baumannii PBP3 Potency. The procedure, abridged: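 Purified PBPs pre-incubated with inhibitor (E. coli PBP3 1.5 μM, 30 min; P. aeruginosa PBP3 0.75 μM, A. baumannii PBP1a 1 μM and PBP3 0.2 μM, 15 min), then Bocillin-FL 0.1 μM (0.05 μM for PBP1a) added; FP read up to 60 min. EC50 = concentration halving bound Bocillin-FL.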
A general note: In fluorescence polarisation assays a small probe gives low polarisation when free and higher when bound to something large.

The subject of a further assay is A. baumannii CDC-0033. Description: microbe, parasite or virus in culture. Type of assay: cell-based. The following applies: Acinetobacter baumannii, CDC0033, read-out: MIC, A. baumannii CDC-0033.

On to `O=C(O)c1c(F)ccc2c1OB(O)[C@@H](NC(=O)C(NC(=O)N1CCN(Cc3cc(F)c(O)c(O)c3Cl)C(=O)C1=O)c1ccc(P(=O)(O)O)cc1)C2` (stereo partly drawn) [Example 45, (3R)-3-(2-(4-(2-chloro-5-fluoro-3,4-dihydroxybenzyl)-2,3-dioxopiperazine-1-carboxamido)-2-(4-phosphonophenyl)acetamido)-7-fluoro-2-hydroxy-3,4-dihydro-2H-benzo[e][1,2]oxaborinine-8-carboxylic acid], for which the IC50 in assay [1] was under 10 µM. Also, the MIC in the assay on A. baumannii CDC-0033 was under 1 mg/L.

In the case of `O=C(O)c1c(F)ccc2c1OB(O)[C@@H](NC(=O)C(NC(=O)N1CCN(Cc3ccc(O)c(O)c3Cl)C(=O)C1=O)c1ccc(P(=O)(O)O)cc1)C2` (stereo partly drawn) [Example 8, (3R)-3-(2-(4-(2-chloro-3,4-dihydroxybenzyl)-2,3-dioxopiperazine-1-carboxamido)-2-(4-phosphonophenyl)acetamido)-7-fluoro-2-hydroxy-3,4-dihydro-2H-benzo[e][1,2]oxaborinine-8-carboxylic acid], the IC50 in assay [1] is under 10 µM. Further, the MIC in the assay on A. baumannii CDC-0033 was under 1 mg/L.

For the molecule `O=C(N[C@@H](C(=O)N[C@H]1Cc2cccc(C(=O)O)c2OB1O)c1ccc(P(=O)(O)O)cc1)c1ccc(O)c(O)c1Cl` [Example 49, (R)-3-((R)-2-(2-chloro-3,4-dihydroxybenzamido)-2-(4-phosphonophenyl)acetamido)-2-hydroxy-3,4-dihydro-2H-benzo[e][1,2]oxaborinine-8-carboxylic acid], the IC50 in assay [1] was under 10 µM. Besides, the MIC in the assay with A. baumannii CDC-0033 was over 128 mg/L.
